Our source for the IC50 values is BindingDB's records for doi:10.1021/acs.jmedchem.6b00275 (University of Washington, 2016).

For one data set, the target named is Cytochrome P450 2C19 (Homo sapiens, UniProt P33261). As to the kind of experiment: Inhibition of CYP2C19 in human liver microsomes using isoform-specific probe substrates in presence of NADPH-generating system by LC-MS analysis.
The target of another data set is Cytochrome P450 2C9 (Homo sapiens, UniProt P11712). As to the kind of experiment: Inhibition of CYP2C9 in human liver microsomes using isoform-specific probe substrates in presence of NADPH-generating system by LC-MS analysis. For orientation: Liver microsomes are a subcellular fraction often used to study metabolism.
Data set [1] concerns the target Dihydroorotate dehydrogenase (quinone), mitochondrial (Homo sapiens, UniProt Q02127). Briefly: Inhibition of N-terminal His6-tagged human DHODH expressed in Escherichia coli BL21 using L-DHO as substrate and CoQ as co-substrate by DCIP dye based spectrophotometric assay.
Data set [2] deals with Dihydroorotate dehydrogenase (quinone), mitochondrial (Rattus norvegicus, UniProt Q63707). Briefly: Inhibition of N-terminal His6-tagged rat DHODH expressed in Escherichia coli BL21 expressed in Escherichia coli BL21 using L-DHO as substrate and CoQ as co-substrate by DCIP dye based spectrophotometric assay.
In the next data set the target is T1, Cytochrome P450 1A2 (Homo sapiens, UniProt P05177).
T1 sequence (P05177 whole entry): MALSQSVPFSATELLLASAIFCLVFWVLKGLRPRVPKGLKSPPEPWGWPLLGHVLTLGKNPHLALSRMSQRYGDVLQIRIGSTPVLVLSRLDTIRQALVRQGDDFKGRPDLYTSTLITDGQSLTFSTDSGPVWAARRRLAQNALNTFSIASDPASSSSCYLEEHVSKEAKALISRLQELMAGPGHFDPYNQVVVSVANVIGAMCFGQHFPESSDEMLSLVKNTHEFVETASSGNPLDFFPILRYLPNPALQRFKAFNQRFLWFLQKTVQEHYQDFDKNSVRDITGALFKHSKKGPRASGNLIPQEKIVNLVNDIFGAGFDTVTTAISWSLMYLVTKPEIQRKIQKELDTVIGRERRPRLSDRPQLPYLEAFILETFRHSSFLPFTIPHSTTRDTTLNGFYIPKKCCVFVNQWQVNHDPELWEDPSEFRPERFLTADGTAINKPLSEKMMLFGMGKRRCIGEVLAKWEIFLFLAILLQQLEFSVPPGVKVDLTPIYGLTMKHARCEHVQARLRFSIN
As to the kind of experiment: Inhibition of CYP1A2 in human liver microsomes using isoform-specific probe substrate in presence of NADPH-generating system by LC-MS analysis.

Another data set has as its target T2, Cytochrome P450 2B6 (Homo sapiens, UniProt P20813).
T2 sequence (P20813 whole entry): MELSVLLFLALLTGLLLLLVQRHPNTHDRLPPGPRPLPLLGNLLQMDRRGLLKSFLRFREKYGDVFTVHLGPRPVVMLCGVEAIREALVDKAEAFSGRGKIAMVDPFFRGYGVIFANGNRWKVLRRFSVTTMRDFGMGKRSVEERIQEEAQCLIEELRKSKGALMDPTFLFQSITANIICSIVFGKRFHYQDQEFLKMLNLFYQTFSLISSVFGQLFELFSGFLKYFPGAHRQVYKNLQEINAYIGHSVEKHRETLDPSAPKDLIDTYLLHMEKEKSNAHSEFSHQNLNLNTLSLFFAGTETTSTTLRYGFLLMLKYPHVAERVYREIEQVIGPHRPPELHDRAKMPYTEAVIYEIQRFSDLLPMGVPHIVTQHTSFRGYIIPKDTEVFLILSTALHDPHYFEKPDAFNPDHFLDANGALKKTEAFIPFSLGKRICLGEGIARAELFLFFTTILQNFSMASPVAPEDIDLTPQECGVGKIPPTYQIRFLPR
As to the kind of experiment: Inhibition of CYP2B6 in human liver microsomes using isoform-specific probe substrates in presence of NADPH-generating system by LC-MS analysis.

A further data set has as its target T3, Cytochrome P450 2C8 (Homo sapiens, UniProt P10632).
T3 sequence (P10632 whole entry): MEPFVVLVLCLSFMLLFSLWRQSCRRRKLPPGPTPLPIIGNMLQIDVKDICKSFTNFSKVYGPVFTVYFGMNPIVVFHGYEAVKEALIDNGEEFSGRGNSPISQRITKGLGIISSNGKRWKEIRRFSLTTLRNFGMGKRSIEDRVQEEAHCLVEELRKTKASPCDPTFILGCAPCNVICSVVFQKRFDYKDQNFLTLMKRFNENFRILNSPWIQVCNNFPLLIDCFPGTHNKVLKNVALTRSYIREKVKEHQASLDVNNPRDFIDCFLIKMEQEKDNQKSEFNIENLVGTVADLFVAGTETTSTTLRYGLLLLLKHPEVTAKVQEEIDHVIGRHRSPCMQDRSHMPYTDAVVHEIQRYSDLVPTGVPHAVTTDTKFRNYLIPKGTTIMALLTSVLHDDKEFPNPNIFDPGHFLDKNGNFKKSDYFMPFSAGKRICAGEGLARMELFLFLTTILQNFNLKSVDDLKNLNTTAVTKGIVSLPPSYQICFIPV
As to the kind of experiment: Inhibition of CYP2C8 in human liver microsomes using isoform-specific probe substrates in presence of NADPH-generating system by LC-MS analysis.

The target of the next data set is Cytochrome P450 2D6 (Homo sapiens, UniProt P10635). As to the kind of experiment: Inhibition of CYP2D6 in human liver microsomes using isoform-specific probe substrates in presence of NADPH-generating system by LC-MS analysis.
In a further data set the target is Cytochrome P450 3A4 (Homo sapiens, UniProt P08684). As to the kind of experiment: Inhibition of CYP3A4 in human liver microsomes using isoform-specific probe substrates in presence of NADPH-generating system by LC-MS analysis.

pIC50: −log10 of the molar value. Bounds are passed on as bounds.

Cytochrome P450 2C9, sequence (P11712 whole entry, canonical isoform): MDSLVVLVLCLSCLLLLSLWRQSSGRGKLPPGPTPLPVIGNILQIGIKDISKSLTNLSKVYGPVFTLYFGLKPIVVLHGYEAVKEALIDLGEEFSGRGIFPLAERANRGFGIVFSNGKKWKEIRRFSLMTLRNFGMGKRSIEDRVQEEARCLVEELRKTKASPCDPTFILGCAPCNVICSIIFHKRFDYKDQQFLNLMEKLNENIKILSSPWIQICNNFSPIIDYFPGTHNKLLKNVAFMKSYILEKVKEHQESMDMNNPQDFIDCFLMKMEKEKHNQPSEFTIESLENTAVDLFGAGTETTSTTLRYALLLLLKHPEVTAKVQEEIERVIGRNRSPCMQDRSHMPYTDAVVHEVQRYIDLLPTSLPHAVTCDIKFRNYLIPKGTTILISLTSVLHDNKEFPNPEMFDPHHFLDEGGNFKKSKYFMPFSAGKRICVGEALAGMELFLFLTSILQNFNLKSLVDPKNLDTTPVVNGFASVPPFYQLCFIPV
Dihydroorotate dehydrogenase (quinone), mitochondrial (Rattus norvegicus, UniProt Q63707), sequence (Q63707 whole entry): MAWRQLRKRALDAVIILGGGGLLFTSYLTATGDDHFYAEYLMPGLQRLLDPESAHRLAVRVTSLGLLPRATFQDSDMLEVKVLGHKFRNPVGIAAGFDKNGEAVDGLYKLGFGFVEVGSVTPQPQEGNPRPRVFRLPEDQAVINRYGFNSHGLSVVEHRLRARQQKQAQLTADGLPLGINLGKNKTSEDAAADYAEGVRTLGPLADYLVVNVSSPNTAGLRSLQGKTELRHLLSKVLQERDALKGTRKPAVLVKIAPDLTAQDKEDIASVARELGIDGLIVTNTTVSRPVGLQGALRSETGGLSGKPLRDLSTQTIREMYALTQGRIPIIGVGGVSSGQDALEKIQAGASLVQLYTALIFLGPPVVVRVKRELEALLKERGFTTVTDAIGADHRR
Cytochrome P450 2D6, sequence (P10635 whole entry, canonical isoform): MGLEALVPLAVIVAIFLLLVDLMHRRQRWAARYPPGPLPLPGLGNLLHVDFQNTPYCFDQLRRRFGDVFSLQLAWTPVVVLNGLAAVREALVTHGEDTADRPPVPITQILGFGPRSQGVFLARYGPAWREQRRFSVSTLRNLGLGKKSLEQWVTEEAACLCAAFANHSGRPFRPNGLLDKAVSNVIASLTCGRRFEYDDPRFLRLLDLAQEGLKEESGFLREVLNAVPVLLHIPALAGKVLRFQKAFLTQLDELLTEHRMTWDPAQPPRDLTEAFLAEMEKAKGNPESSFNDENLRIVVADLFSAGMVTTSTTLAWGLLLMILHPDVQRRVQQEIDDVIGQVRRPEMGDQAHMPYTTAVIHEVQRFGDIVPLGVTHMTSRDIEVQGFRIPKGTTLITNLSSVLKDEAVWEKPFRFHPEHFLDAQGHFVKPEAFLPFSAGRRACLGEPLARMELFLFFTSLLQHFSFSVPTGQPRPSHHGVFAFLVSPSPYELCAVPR
Dihydroorotate dehydrogenase (quinone), mitochondrial (Homo sapiens, UniProt Q02127), sequence (Q02127 whole entry): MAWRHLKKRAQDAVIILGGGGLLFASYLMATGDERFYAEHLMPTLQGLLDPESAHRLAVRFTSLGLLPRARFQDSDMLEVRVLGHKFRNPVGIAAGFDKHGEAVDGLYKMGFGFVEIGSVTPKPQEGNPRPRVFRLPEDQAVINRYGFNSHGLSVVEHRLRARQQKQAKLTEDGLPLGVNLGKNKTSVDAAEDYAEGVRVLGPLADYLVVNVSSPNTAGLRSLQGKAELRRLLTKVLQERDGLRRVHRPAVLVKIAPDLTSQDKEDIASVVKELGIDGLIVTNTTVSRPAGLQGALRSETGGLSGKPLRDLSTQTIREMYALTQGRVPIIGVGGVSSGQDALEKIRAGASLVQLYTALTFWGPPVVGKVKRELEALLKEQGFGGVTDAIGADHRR
Cytochrome P450 2C19, sequence (P33261 whole entry, canonical isoform): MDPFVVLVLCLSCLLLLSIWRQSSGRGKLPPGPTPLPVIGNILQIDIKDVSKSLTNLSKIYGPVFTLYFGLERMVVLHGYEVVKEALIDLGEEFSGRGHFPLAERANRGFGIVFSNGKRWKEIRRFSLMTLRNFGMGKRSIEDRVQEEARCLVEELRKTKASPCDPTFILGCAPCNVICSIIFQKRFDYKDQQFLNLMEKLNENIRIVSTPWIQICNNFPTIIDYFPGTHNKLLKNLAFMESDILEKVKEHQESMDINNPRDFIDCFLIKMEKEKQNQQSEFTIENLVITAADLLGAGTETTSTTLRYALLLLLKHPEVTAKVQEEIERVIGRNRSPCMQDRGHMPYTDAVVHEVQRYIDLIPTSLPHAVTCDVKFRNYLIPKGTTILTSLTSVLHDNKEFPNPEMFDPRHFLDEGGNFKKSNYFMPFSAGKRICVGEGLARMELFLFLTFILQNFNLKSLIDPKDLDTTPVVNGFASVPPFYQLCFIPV
Cytochrome P450 3A4, sequence (P08684 whole entry, canonical isoform): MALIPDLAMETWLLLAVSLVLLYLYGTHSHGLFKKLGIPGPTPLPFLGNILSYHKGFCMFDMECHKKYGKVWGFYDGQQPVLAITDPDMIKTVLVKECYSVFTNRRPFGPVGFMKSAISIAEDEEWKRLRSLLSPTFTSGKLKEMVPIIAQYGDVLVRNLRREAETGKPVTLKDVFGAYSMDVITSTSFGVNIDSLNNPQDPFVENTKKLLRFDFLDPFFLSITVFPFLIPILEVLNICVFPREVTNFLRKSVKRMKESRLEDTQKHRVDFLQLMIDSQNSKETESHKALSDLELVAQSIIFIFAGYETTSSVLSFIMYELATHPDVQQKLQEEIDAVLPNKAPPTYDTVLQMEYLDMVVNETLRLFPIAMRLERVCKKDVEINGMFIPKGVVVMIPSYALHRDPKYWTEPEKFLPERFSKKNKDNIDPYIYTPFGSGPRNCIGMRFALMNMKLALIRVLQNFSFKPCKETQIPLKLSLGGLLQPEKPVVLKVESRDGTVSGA

The pIC50 is the negative decadic logarithm of the IC50, by convention in mol/L. In the case of `Cc1cc(NC2CCc3cc(Br)ccc3C2)n2nc(C(C)(F)F)nc2n1` (stereo unspecified), the pIC50 is less than 4.70 at Cytochrome P450 2C19; 5.06 on Cytochrome P450 2C9; less than 4.00 in data set [1]; less than 4.00 in [2]; less than 4.70 on Cytochrome P450 1A2; 4.75 on Cytochrome P450 2B6. Also, the values for the pIC50 at Cytochrome P450 2C8 and at Cytochrome P450 2D6 were 4.73 and less than 4.70, respectively.

On to `Cc1cc(NC2CCc3ccc(Cl)cc3C2)n2nc(C(F)(F)F)nc2n1` (stereo unspecified), for which, in data set [1], the negative logarithm of the IC50 (pIC50) was less than 4.30.

As to `Cc1cc(NC2CCc3cc(Cl)ccc3C2)n2nc(C(C)(F)F)nc2n1` (stereo unspecified), the pIC50 at Cytochrome P450 2C9 was 4.99; in data set [1], less than 4.00; in data set [2], less than 4.00; on Cytochrome P450 1A2, less than 4.70; on Cytochrome P450 2B6 it was 4.74; at Cytochrome P450 2C8, less than 4.70. In addition, the pIC50 on Cytochrome P450 2D6 is 4.70; at Cytochrome P450 3A4 it was less than 4.70.

As for `Cc1cc(N[C@H]2CCc3ccc(Br)cc3C2)n2nc(C(C)(F)F)nc2n1`, the negative logarithm of the IC50 (pIC50) was less than 4.70 at Cytochrome P450 2C19; 5.51 at Cytochrome P450 2C9; less than 4.00 in data set [2]; less than 4.70 at Cytochrome P450 1A2; less than 4.70 on Cytochrome P450 2B6; 4.77 at Cytochrome P450 2C8. Also, the negative logarithm of the IC50 (pIC50) on Cytochrome P450 2D6 was 5.41; on Cytochrome P450 3A4, less than 4.70.

For the molecule `COc1ccc2c(c1)CC(Nc1cc(C)nc3nc(C(C)(F)F)nn13)CC2` (stereo unspecified), the negative-log IC50 (pIC50) in data set [1] is less than 4.00.
